The values that follow are results of earlier work, collected in US20080003608A1, “Highly Specific Polyclonal Antibodies of Individual Core Histone and Uses Thereof” (priority 2004, published 2008).

In this data set the target is T1, p300 (Homo sapiens, UniProt Q09472).
T1 construct: lane 3 curcumin (75 μM) treated cells, lane 4, curcumin (100 μM) treated cells; endogenous in cells
The note with it: reference (2).

Each structure is given as a SMILES string.

T1 sequence (Q09472 whole entry, species assumed): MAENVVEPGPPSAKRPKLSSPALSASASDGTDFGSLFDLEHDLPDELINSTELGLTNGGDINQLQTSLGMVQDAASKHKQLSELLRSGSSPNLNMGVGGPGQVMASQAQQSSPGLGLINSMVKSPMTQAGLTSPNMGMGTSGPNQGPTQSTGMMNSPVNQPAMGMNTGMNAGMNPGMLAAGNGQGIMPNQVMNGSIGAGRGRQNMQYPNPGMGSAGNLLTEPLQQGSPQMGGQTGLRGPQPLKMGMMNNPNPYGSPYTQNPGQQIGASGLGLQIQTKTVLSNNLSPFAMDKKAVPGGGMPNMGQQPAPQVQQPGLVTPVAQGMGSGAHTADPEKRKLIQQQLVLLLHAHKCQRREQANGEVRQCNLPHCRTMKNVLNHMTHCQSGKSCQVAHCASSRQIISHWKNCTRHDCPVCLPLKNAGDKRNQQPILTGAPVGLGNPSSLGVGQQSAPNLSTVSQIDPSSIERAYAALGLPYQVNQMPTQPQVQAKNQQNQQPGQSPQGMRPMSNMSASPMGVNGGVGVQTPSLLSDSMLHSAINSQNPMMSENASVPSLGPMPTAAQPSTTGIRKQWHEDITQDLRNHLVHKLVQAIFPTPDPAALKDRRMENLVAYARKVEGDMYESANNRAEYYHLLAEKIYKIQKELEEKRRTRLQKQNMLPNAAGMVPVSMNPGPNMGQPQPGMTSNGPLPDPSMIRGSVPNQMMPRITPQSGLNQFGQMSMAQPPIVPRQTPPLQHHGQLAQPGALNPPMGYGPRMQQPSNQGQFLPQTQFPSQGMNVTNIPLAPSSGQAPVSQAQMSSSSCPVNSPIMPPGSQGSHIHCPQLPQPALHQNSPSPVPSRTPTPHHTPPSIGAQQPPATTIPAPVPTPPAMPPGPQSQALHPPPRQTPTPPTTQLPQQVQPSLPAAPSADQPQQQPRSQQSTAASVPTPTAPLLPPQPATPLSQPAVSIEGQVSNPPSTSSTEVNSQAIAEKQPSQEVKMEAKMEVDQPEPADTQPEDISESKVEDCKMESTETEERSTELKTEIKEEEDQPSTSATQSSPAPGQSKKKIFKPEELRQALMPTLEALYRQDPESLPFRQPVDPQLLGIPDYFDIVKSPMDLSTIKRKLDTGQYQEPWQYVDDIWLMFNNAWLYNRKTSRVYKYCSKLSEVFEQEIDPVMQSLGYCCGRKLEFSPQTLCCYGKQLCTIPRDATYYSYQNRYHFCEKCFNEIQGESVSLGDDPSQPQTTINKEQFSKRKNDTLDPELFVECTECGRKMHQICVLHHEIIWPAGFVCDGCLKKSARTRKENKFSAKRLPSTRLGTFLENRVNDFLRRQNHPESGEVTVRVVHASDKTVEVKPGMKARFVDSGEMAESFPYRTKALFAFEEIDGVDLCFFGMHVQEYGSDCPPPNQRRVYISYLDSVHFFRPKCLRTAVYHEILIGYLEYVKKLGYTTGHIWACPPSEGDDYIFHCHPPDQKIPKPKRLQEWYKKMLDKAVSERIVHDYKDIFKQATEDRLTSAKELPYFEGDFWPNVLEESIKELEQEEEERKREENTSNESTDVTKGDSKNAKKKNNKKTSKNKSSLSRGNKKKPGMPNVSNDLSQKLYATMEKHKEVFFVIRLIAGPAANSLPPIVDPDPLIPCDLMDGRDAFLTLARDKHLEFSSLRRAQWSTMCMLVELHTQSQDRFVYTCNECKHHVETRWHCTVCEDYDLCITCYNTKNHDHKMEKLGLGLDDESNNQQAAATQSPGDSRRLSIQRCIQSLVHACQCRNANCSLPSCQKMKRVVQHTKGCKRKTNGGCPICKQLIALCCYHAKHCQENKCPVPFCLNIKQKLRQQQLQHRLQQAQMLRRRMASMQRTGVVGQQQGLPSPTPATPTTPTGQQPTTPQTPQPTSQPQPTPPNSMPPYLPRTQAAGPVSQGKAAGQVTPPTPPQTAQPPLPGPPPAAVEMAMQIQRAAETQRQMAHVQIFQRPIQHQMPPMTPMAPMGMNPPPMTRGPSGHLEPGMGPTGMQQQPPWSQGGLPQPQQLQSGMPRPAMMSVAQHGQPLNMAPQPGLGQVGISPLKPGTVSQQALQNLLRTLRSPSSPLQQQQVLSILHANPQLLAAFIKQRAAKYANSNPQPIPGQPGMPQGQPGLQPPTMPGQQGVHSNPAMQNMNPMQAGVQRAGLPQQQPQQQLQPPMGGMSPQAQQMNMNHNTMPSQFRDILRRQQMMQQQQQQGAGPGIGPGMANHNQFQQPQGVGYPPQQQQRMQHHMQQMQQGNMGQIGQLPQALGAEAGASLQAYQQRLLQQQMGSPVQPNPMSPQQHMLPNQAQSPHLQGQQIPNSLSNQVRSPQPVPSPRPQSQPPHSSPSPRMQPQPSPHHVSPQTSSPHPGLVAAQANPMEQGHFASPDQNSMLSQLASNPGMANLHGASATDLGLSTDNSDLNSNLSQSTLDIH

In the case of `COc1cc(/C=C/C(=O)CC(=O)/C=C/c2ccc(O)c(OC)c2)ccc1O` [Curcumin], the HAT inhibition entry is “potent p300-specific HAT inhibitor”.
